What was measured:
Type in all cases: in vivo
[1] = test system: ovariectomized Sprague-Dawley rats; assay: Bone mineral density in the ovariectomized rat (pQCT, proximal tibia); details: compound 10 mg/kg s.c.; 5 weeks
[2] = test system: Sexually immature Sprague-Dawley rats; assay: Rat uterotrophic test procedure (Procedure 1); details: compound 2 mg/rat + 17α-ethinyl, 17β-estradiol 0.06 μg/rat s.c. (antagonist mode)
Male HLA-B27 rats [3] = assay: HLA-B27 rat model of arthritis: joint scores; details: Study 1, oral 20 mg/kg once per day (10 mg/kg earlier)
Male HLA-B27 rats [4] = assay: HLA-B27 rat test for inflammatory bowel disease: histological scoring of colon; details: Study C
Method: Representative metabolites of compounds of the invention were evaluated in the HLA rat standard pharmacological test procedure, which emulates inflammatory bowel disease in humans. The following briefly describes the procedure used and results obtained. […] Louis) and water. Stool quality was observed daily and graded according to the following scale: Diarrhea=3; soft stool=2; normal stool=1. At the end of the study, serum was collected and stored at −70° C. A section of colon was prepared for histological analysis and an additional segment was analyzed for myeloperoxidase activity. In Study A, rats (22-26 weeks old) were dosed subcutaneously once per day for seven days with one of the regimens listed below. […] Histological analysis. Colonic tissue was immersed in 10% neutral buffered formalin. Each specimen of colon was separated into four samples for evaluation. The formalin-fixed tissues were processed in a Tissue-Tek® vaccum infiltration processor (Miles, Inc; West Haven, Conn.) for paraffin embedding. The samples were sectioned at 5 μm and then stained with hematoxylin and eosin (H&E) for blinded histological evaluations using a scale modified after Boughton-Smith. After the scores were completed, the samples were unblinded, and data were tabulated and analyzed by ANOVA linear modeling with multiple mean comparisons. Sections of colonic tissue were evaluated for several disease indicators and given relative scores.

Male HLA-B27 rats [5] = assay: HLA rat test for inflammatory bowel disease: stool character (3 = diarrhea; 2 = soft stool; 1 = normal stool); details: Study C
Male HLA-B27 rats [6] = assay: HLA-B27 rat model of arthritis: joint histology; details: Study 1; oral 46 days; 10 mg/kg days 1-18, then 20 mg/kg
Method: At the end of the study, the rats are euthanized with CO2, hindlimbs removed at necropsy and fixed in 10% buffered formalin, and the tarsal joints decalcified and embedded in paraffin. Histologic sections are stained with Hematoxylin and Eosin or […] Green stain. Slides are coded so that the examiner is blinded to the treatment groups. Synovial tissue from tarsal joints is evaluated based on synovial hyperplasia, inflammatory cell infiltration, and pannus formation [Poole and Coombs, International Archives of Allergy & Applied Immunology 54: 97-113 (1977)], as outlined below. [table] […] [table] Representative metabolites of compounds of the invention were evaluated in the HLA-B27 rat standard pharmacological test procedure, which emulates arthritis in humans. The following briefly describes the procedure used and results obtained. Male HLA-B27 rats were obtained from Taconic and provided unrestricted access to a food (PMI® LabDiet 5001) and water. Joint scores and histology were evaluated as described above for the Lewis rat model of adjuvant-induced arthritis. Study 1: […]

[7] = test system: Sexually immature 129 SvE mice; assay: Mouse uterotrophic test procedure (Procedure 2); details: compound 20 mg/kg s.c., days 22-25
[8] = oral 7 weeks, 10 mg/kg days 1-18, then 20 mg/kg

Oc1cc(Br)c2oc(-c3ccc(O)c(F)c3)nc2c1 [Example 21, 7-BROMO-2-(3-FLUORO-4-HYDROXYPHENYL)-1,3-BENZOXAZOL-5-OL]
Total Bone Mineral Density (mean ± SEM) [1]: 501.40 ± 11.97 mg/mL | Trabecular Bone Mineral Density (mean ± SEM) [1]: 312.34 ± 19.73 mg/mL | mean uterine weight ± SEM [2]: 93.9 ± 5.9 mg | Joint inflammation score (Male HLA-B27 rats [3]; Day 29): 0.75 | Joint inflammation score (Male HLA-B27 rats [3]; Day 30): 1.75 | Joint inflammation score (Male HLA-B27 rats [3]; Day 31): 1.25 | Joint inflammation score (Male HLA-B27 rats [3]; Day 32): 0.75 | Joint inflammation score (Male HLA-B27 rats [3]; Day 33): 1 | Joint inflammation score (Male HLA-B27 rats [3]; Day 34): 1.25 | Joint inflammation score (Male HLA-B27 rats [3]; Day 35): 2.25 | Joint inflammation score (Male HLA-B27 rats [3]; Day 36): 1 | Joint inflammation score (Male HLA-B27 rats [3]; Day 37): 4 | Joint inflammation score (Male HLA-B27 rats [3]; Day 38): 1.5 | Joint inflammation score (Male HLA-B27 rats [3]; Day 39): 1.5 | Joint inflammation score (Male HLA-B27 rats [3]; Day 40): 2.25 | Joint inflammation score (Male HLA-B27 rats [3]; Day 41): 2.25 | Joint inflammation score (Male HLA-B27 rats [3]; Day 42): 1.5 | Joint inflammation score (Male HLA-B27 rats [3]; Day 43): 1.25 | Joint inflammation score (Male HLA-B27 rats [3]; Day 44): 1 | Joint inflammation score (Male HLA-B27 rats [3]; Day 45): 2.5 | Joint inflammation score (Male HLA-B27 rats [3]; Day 46): 2 | Scores on all disease parameters versus vehicle (Male HLA-B27 rats [4]; oral): although not statistically significant, were lower than corresponding scores from vehicle-treated rats | Fibrosis (0-2), mean ± SD (Male HLA-B27 rats [4]; [8]): 0.56 ± 0.32 | Inflammation (0-3), mean ± SD (Male HLA-B27 rats [4]; [8]): 2.06 ± 0.43 | Lesion depth (0-2), mean ± SD (Male HLA-B27 rats [4]; [8]): 0.75 ± 0.50 | Total score, mean ± SD (Male HLA-B27 rats [4]; [8]): 4.19 ± 1.74 | Ulceration (0-2), mean ± SD (Male HLA-B27 rats [4]; [8]): 0.81 ± 0.47 | Stool Character (group's average score) (Male HLA-B27 rats [5]; oral 10 mg/kg once per day, Day 1): 2.75 | Stool Character (group's average score) (Male HLA-B27 rats [5]; oral 10 mg/kg once per day, Day 3): 2.75 | Stool Character (group's average score) (Male HLA-B27 rats [5]; oral 10 mg/kg once per day, Day 4): 2.75 | Stool Character (group's average score) (Male HLA-B27 rats [5]; oral 10 mg/kg once per day, Day 5): 2.75 | Stool Character (group's average score) (Male HLA-B27 rats [5]; oral 10 mg/kg once per day, Day 6): 2.5 | Stool Character (group's average score) (Male HLA-B27 rats [5]; oral 10 mg/kg once per day, Day 7): 2.5 | Stool Character (group's average score) (Male HLA-B27 rats [5]; oral 10 mg/kg once per day, Day 8): 2.75 | Stool Character (group's average score) (Male HLA-B27 rats [5]; oral 10 mg/kg once per day, Day 9): 2.5 | Stool Character (group's average score) (Male HLA-B27 rats [5]; oral 10 mg/kg once per day, Day 10): 2.75 | Stool Character (group's average score) (Male HLA-B27 rats [5]; oral 10 mg/kg once per day, Day 11): 2.5 | Stool Character (group's average score) (Male HLA-B27 rats [5]; oral 10 mg/kg once per day, Day 12): 2.5 | Stool Character (group's average score) (Male HLA-B27 rats [5]; oral 10 mg/kg once per day, Day 13): 2.5 | Stool Character (group's average score) (Male HLA-B27 rats [5]; oral 10 mg/kg once per day, Day 14): 2.5 | Stool Character (group's average score) (Male HLA-B27 rats [5]; oral 10 mg/kg once per day, Day 15): 2.5 | Stool Character (group's average score) (Male HLA-B27 rats [5]; oral 10 mg/kg once per day, Day 16): 2.5 | Stool Character (group's average score) (Male HLA-B27 rats [5]; oral 10 mg/kg once per day, Day 17): 2.5 | Stool Character (group's average score) (Male HLA-B27 rats [5]; oral 10 mg/kg once per day, Day 18): 2.5 | Stool Character (group's average score) (Male HLA-B27 rats [5]; oral 20 mg/kg once per day (10 mg/kg days 1-18), Day 19): 2.75 | Stool Character (group's average score) (Male HLA-B27 rats [5]; oral 20 mg/kg once per day (10 mg/kg days 1-18), Day 20): 2.5 | Stool Character (group's average score) (Male HLA-B27 rats [5]; oral 20 mg/kg once per day (10 mg/kg days 1-18), Day 21): 2.75 | Stool Character (group's average score) (Male HLA-B27 rats [5]; oral 20 mg/kg once per day (10 mg/kg days 1-18), Day 22): 2.5 | Stool Character (group's average score) (Male HLA-B27 rats [5]; oral 20 mg/kg once per day (10 mg/kg days 1-18), Day 23): 2.25 | Stool Character (group's average score) (Male HLA-B27 rats [5]; oral 20 mg/kg once per day (10 mg/kg days 1-18), Day 24): 1.75 | Stool Character (group's average score) (Male HLA-B27 rats [5]; oral 20 mg/kg once per day (10 mg/kg earlier), Day 25): 2 | Stool Character (group's average score) (Male HLA-B27 rats [5]; oral 20 mg/kg once per day (10 mg/kg earlier), Day 26): 2 | Stool Character (group's average score) (Male HLA-B27 rats [5]; oral 20 mg/kg once per day (10 mg/kg earlier), Day 27): 2 | Stool Character (group's average score) (Male HLA-B27 rats [5]; oral 20 mg/kg once per day (10 mg/kg earlier), Day 28): 2 | Stool Character (group's average score) (Male HLA-B27 rats [5]; oral 20 mg/kg once per day (10 mg/kg earlier), Day 29): 2 | Stool Character (group's average score) (Male HLA-B27 rats [5]; oral 20 mg/kg once per day (10 mg/kg earlier), Day 30): 2.25 | Stool Character (group's average score) (Male HLA-B27 rats [5]; oral 20 mg/kg once per day (10 mg/kg earlier), Day 31): 2.25 | Stool Character (group's average score) (Male HLA-B27 rats [5]; oral 20 mg/kg once per day (10 mg/kg earlier), Day 32): 2 | Stool Character (group's average score) (Male HLA-B27 rats [5]; oral 20 mg/kg once per day (10 mg/kg earlier), Day 33): 1.5 | Stool Character (group's average score) (Male HLA-B27 rats [5]; oral 20 mg/kg once per day (10 mg/kg earlier), Day 34): 1.75 | Stool Character (group's average score) (Male HLA-B27 rats [5]; oral 20 mg/kg once per day (10 mg/kg earlier), Day 35): 1.5 | Stool Character (group's average score) (Male HLA-B27 rats [5]; oral 20 mg/kg once per day (10 mg/kg earlier), Day 36): 1.75 | Stool Character (group's average score) (Male HLA-B27 rats [5]; oral 20 mg/kg once per day (10 mg/kg earlier), Day 37): 1.5 | Stool Character (group's average score) (Male HLA-B27 rats [5]; oral 20 mg/kg once per day (10 mg/kg earlier), Day 38): 1.5 | Stool Character (group's average score) (Male HLA-B27 rats [5]; oral 20 mg/kg once per day (10 mg/kg earlier), Day 39): 2 | Stool Character (group's average score) (Male HLA-B27 rats [5]; oral 20 mg/kg once per day (10 mg/kg earlier), Day 40): 1.75 | Stool Character (group's average score) (Male HLA-B27 rats [5]; oral 20 mg/kg once per day (10 mg/kg earlier), Day 41): 2 | Stool Character (group's average score) (Male HLA-B27 rats [5]; oral 20 mg/kg once per day (10 mg/kg earlier), Day 42): 2 | Stool Character (group's average score) (Male HLA-B27 rats [5]; oral 20 mg/kg once per day (10 mg/kg earlier), Day 43): 2 | Stool Character (group's average score) (Male HLA-B27 rats [5]; oral 20 mg/kg once per day (10 mg/kg earlier), Day 44): 2 | Stool Character (group's average score) (Male HLA-B27 rats [5]; oral 20 mg/kg once per day (10 mg/kg earlier), Day 45): 2 | Stool Character (group's average score) (Male HLA-B27 rats [5]; oral 20 mg/kg once per day (10 mg/kg earlier), Day 46): 2 | Mankin score (mean ± SD) (Male HLA-B27 rats [6]): 4.6 ± 0.9 | Synovitis score (mean ± SD) (Male HLA-B27 rats [6]): 6.1 ± 0.75 | mean uterine weight ± SEM [7]: 12.1 ± 1.7 mg

Source: patent publication US20060046968A1, “Prodrug substituted benzoxazoles as estrogenic agents” (priority 2004, published 2006)
